Key:
Type in all cases: ADME
[1] = target: Cytochrome P450 2C19 (Homo sapiens, UniProt P33261); experiment: Drug metabolism assessed as human recombinant CYP2C19-mediated 17-hydroexemestane formation rate per pmol of enzyme at 10 uM after 10 mins
[2] = target: Cytochrome P450 3A5 (Homo sapiens, UniProt P20815); experiment: Drug metabolism assessed as human recombinant CYP3A5-mediated 17-hydroexemestane formation rate per pmol of enzyme at 10 uM after 10 mins
[3] = target: Cytochrome P450 2C9 (Homo sapiens, UniProt P11712); experiment: Drug metabolism assessed as human recombinant CYP2C9-mediated 17-hydroexemestane formation rate per pmol of enzyme at 10 uM after 10 mins
Sequence of Cytochrome P450 2C9 (P11712 whole entry): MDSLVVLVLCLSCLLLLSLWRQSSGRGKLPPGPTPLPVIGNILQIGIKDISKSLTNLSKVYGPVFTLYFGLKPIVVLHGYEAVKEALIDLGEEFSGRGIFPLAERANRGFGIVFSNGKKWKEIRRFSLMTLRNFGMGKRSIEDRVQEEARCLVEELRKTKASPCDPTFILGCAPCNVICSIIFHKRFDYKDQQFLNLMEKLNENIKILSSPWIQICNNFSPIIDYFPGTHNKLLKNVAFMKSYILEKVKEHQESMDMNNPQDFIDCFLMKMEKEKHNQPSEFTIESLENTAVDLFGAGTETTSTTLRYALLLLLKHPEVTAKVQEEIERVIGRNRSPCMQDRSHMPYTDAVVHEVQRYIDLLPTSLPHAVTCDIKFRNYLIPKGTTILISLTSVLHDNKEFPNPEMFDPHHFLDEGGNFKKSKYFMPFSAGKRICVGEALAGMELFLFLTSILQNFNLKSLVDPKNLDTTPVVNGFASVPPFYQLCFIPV

[4] = system: Liver microsome; experiment: Drug metabolism in human liver microsomes assessed as 17-hydroexemestane formation at 10 uM after 10 mins by LC-MS/MS analysis
[5] = target: T1, Cytochrome P450 2B6 (Homo sapiens, UniProt P20813); experiment: Drug metabolism assessed as human recombinant CYP2B6-mediated 17-hydroexemestane formation rate per pmol of enzyme at 10 uM after 10 mins
T1 sequence (P20813 whole entry): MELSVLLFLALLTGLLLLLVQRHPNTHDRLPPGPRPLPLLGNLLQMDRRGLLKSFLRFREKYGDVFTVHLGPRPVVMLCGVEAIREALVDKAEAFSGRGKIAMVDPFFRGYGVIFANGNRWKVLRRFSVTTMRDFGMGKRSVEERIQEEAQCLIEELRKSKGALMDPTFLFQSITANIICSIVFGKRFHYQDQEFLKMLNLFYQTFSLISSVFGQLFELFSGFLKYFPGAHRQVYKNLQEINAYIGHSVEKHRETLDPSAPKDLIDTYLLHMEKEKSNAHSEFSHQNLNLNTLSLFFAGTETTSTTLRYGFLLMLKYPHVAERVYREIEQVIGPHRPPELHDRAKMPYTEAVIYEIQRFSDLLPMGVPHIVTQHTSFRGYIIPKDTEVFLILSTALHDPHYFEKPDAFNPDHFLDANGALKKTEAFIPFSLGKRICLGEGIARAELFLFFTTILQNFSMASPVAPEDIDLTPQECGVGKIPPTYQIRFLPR

[6] = target: T2, Cytochrome P450 4A11 (Homo sapiens, UniProt Q02928); experiment: Drug metabolism assessed as human recombinant CYP4A11-mediated 17-hydroexemestane formation rate per pmol of enzyme at 10 uM after 10 mins
T2 sequence (Q02928 whole entry): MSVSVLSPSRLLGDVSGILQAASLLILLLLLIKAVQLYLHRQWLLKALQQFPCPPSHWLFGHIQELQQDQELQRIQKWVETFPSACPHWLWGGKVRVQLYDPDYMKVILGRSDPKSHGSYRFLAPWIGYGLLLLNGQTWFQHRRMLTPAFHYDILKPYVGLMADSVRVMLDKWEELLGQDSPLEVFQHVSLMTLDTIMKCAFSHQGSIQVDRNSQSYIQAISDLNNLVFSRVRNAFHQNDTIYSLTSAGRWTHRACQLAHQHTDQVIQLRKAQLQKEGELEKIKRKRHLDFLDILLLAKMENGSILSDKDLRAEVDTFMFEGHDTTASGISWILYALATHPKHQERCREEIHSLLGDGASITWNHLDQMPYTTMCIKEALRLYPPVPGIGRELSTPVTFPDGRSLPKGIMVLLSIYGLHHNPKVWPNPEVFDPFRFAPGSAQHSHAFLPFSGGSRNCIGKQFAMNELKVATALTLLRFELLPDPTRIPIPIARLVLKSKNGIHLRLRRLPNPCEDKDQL

[7] = target: Cytochrome P450 3A4 (Homo sapiens, UniProt P08684); experiment: Drug metabolism assessed as human recombinant CYP3A4-mediated 17-hydroexemestane formation rate per pmol of enzyme at 10 uM after 10 mins
Sequence of Cytochrome P450 3A4 (P08684 whole entry): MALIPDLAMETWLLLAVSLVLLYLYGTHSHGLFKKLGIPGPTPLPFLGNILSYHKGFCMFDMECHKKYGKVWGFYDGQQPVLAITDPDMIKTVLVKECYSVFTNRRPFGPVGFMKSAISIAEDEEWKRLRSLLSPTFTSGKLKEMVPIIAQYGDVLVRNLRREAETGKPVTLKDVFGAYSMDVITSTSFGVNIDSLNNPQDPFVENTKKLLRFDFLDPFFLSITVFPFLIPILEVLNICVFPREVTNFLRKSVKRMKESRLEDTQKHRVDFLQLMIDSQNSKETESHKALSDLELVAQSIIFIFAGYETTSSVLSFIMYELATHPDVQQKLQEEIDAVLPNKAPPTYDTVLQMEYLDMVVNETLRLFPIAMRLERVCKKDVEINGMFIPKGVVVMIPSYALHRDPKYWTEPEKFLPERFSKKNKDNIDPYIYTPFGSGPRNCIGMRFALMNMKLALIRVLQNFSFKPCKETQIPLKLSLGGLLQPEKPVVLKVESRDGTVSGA

[8] = target: T1, Cytochrome P450 2B6; experiment: Drug metabolism assessed as human recombinant CYP2B6-mediated 17-hydroexemestane formation at 10 uM after 10 mins by Michaelis-Menten saturation curve analysis; conditions: recombinant enzyme
[9] = system: Liver microsome; experiment: Drug metabolism in human liver microsomes assessed as retention time treated with 300 uM of exemestane after 10 mins by HPLC with UV analysis
[10] = target: T3, Aromatase (Homo sapiens, UniProt P11511); experiment: Drug metabolism assessed as human recombinant CYP19-mediated 17-hydroexemestane formation at 10 uM after 10 mins by Michaelis-Menten saturation curve analysis; conditions: recombinant enzyme
T3 sequence (P11511 whole entry): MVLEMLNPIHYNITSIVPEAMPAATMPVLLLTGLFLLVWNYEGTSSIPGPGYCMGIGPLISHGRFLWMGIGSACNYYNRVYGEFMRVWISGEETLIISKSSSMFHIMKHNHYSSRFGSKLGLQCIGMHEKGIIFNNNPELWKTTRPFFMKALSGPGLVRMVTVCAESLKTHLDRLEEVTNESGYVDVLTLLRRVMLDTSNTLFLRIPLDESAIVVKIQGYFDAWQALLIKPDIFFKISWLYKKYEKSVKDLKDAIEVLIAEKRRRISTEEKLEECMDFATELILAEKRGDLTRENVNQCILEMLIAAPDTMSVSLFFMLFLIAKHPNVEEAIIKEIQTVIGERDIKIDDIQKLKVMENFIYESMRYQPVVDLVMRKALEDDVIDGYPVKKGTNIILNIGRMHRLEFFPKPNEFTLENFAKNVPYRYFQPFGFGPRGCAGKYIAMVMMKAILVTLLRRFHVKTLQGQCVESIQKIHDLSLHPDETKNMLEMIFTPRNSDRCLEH

[11] = target: T4, Cytochrome P450 1A1 (Homo sapiens, UniProt P04798); experiment: Drug metabolism assessed as human recombinant CYP1A1-mediated 17-hydroexemestane formation rate per pmol of enzyme at 10 uM after 10 mins
T4 sequence (P04798 whole entry): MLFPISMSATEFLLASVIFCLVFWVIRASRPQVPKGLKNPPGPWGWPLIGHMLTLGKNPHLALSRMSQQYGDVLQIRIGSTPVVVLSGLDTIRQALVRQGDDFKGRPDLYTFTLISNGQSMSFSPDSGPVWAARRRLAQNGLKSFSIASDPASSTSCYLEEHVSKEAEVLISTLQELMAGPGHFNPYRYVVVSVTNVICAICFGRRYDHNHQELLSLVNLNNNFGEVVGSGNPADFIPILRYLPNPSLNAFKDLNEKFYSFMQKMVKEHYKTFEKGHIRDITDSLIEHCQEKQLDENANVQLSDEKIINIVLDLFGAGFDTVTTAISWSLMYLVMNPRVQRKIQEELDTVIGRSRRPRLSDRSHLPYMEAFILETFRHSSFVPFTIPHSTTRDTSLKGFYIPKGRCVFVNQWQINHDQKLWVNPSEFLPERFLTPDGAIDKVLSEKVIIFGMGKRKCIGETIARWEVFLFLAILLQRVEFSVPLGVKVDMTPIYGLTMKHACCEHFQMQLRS

Sequence of Cytochrome P450 2C19 (P33261 whole entry): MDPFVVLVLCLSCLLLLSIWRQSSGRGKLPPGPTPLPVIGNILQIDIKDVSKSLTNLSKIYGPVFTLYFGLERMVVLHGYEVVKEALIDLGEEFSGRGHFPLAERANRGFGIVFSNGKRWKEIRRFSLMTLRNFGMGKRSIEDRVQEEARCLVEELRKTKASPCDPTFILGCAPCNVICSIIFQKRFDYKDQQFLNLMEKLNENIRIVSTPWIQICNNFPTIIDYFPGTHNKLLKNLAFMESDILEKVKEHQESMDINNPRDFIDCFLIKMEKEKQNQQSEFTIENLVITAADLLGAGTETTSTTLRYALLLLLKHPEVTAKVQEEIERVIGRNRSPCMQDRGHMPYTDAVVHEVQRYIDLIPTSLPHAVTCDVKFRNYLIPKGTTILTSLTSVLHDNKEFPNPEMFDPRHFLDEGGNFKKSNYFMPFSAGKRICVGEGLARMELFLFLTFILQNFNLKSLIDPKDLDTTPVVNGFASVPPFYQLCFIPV
Sequence of Cytochrome P450 3A5 (P20815 whole entry): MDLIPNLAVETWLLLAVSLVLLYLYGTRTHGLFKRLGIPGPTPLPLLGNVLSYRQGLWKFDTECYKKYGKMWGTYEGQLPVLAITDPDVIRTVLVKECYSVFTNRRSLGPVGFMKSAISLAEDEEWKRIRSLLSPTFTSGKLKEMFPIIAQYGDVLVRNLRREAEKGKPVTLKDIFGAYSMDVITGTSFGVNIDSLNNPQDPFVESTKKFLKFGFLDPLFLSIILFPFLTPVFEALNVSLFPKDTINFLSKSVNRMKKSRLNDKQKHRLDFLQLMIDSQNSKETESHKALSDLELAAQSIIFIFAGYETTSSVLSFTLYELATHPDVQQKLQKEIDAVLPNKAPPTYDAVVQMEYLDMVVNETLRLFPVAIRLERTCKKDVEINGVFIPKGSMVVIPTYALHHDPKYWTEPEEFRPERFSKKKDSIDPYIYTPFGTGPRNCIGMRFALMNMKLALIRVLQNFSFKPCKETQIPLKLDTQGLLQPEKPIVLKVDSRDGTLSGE

With `C=C1C[C@@H]2[C@H](CC[C@]3(C)C(O)CC[C@@H]23)[C@@]2(C)C=CC(=O)C=C12` (some centres not stated) the Drug metabolism [1] was “metabolite_not_detected”, the Drug metabolism [2] was 0.21 pmol/min and the Drug metabolism [3] was “metabolite_not_detected”. The “Vmax(app)” value [4] was 137.32 pmol/mg/min, the Drug metabolism [5] was 0.3 pmol/min and the Drug metabolism [6] was 0.48 pmol/min. The Drug metabolism [7] was 0.17 pmol/min, the “Vmax(app)” value [8] was 3.9 pmol/mg/min and the Km ([8]; read-out: Km(app)) was 177 µM. The Retention_time [9] was 13.1 min, the Drug metabolism [10] was “metabolite_detected” and the Drug metabolism [11] was 1.09 pmol/min.
